According to US9956199B2, “Chromane-like cyclic prenylflavonoids for the medical intervention in neurological disorders” (priority 2011, dated 2018):
“Also recorded” adds a separate entry of the source.

System: promoter of the neuronal precursor specific gene doublecortin (DCX)
Experiment: DCX promoter firefly-luciferase assay in primary fetal mouse brain derived (MEF) cells
Assay type: cell-based
Conditions: for effect on DCX promoter induction: 10 μM, MEF cells, three days; for stimulatory effect on the DCX promoter activity (FF/R relative to control): DCX promoter-luciferase transfected MEF cells, stimulated three days
Procedure: Primary mouse embryonic day 16 forebrain (MEF) cultures were prepared as follows. Pregnant NMRI mice (Charles River Laboratories, Sulzfeld, Germany) were sacrificed and the uteri promptly removed and immersed in ice-cold Dulbecco's phosphate buffered saline solution—DPBS (PAA, Pasching, Austria). Eight embryonic day (E) 16 embryos were released from the uteri; forebrains were taken out, separated from surrounding tissues and mechanically dissociated using a razor blade. Subsequently the dissociated cells were collected by 5 min centrifugation at 120×g. The pellet was resuspended in 10 ml PPD-solution containing 0.01% papain (Worthington, England), 0.1% Dispasell (Roche, Basel, Switzerland), 0.01% DNasel (Worthington, England), 12.4 mM MgSO4 dissolved in HBSS w/o Ca/Mg (PAA, Pasching, Austria). The cell suspension was incubated at 37° C. and triturated every ten minutes for three times. The cell suspension was then centrifuged at 120×g for 5 minutes and washed three times in Neurobasal medium (Gibco BRL, Germany) supplemented with 2% (v/v) B27 (Gibco BRL, Karlsruhe), 2 mM L-glutamine, 100 μg/ml Penicillin/Streptomycin (PAN Biotech GmbH, Aidenbach, Germany). Finally, the cell preparation was resuspended in 12 ml Neurobasal medium supplemented with B27 (Gibco BRL, Karlsruhe), 2 mM L-glutamine, 100 μg/ml Penicillin/Streptomycin (PAN Biotech GmbH, Aidenbach, Germany), 20 ng/ml Epidermal Growth Factor—rhEGF, 20 ng/ml Fibroblast Growth Factor—rhFGF (R&D Systems, Wiesbaden-Nordenstadt, Germany) and 2 μg/ml Heparin (Sigma-Aldrich, Taufkirchen, Germany) (NB plus all), seeded in one T75 flask (TPP, Switzerland) and maintained in a humidified atmosphere at 37° C. and 5% CO2. […] On this day (day 2), half of the medium was refreshed and on day 4 cells were passaged. To passage the cells, the culture medium containing the floating neurospheres was collected in a 15 ml tube (Corning, Lowell, USA) and centrifuged at 120×g for 5 min. For dissociation, the pellet was resuspended in 500 μl Accutase (PAA, Pasching, Austria) and triturated using a 1 ml pipette. The cell suspension was incubated at 37° C. for 10 min, and then, 10 ml media were added. Cell number was determined by Trypan blue exclusion.
Luciferase assays were performed using a noncommercial dual luciferase enzyme assay system (Dyer et al., 2000, Anal Biochem). In this system, a co-transfection with pDCX-Luci and a control vector driving Renilla-luciferase under the CMV promoter was performed. The two different luciferases have different specific substrates and, therefore, the DCX regulatory region driven firefly luciferase activity can be distinguished from CMV driven Renilla-luciferase. For analysis, the firefly luciferase activity was normalized against the CMV driven Renilla-luciferase. For each transfection reaction, a volume containing two million cells was transferred into a 15 ml tube (Corning, Lowell, USA), centrifuged at 120×g for 5 min to pellet the cells and resuspended in 100 μl Amaxa Mouse Neural Stem Cell Nucleofector Kit (Lonza, Kln, Germany). Then, pDCX-Luci (Karl, 2005) and pRL3 (Promega, Mannheim, Germany) (5 μg each) were added and the entire reaction mix was transferred into an Amaxa transfection cuvette. Transfection was done using the A-033 program in the Amaxa Nucleofector II (Lonza, Kln, Germany). Transfected cells were then pipetted into 20 ml of DMEM knockout medium (Gibco BRL, Germany) containing 20% serum replacement supplement (PAN Biotech GmbH, Aidenbach, Germany), 2 mM L-glutamine (PAN Biotech GmbH, Aidenbach, Germany) and 100 μg/ml Penicillin/Streptomycin (PAN Biotech GmbH, Aidenbach, Germany) (DMEM-KO plus supplements) in a 50 ml tube (Corning, Lowell, USA). From this resulting cell suspension, 200 μl per well were plated in Poly-Ornithine/Laminin coated 96-well-luciferase plates (Wimmer & Macho, Wels, Austria) in a cell density of 20.000 cells per well, as described herein below.

| SMILES | effect on DCX promoter induction | stimulatory effect on the DCX promoter activity (FF/R relative to control) |
| --- | --- | --- |
| COc1cc2c(c(O)c1C(=O)/C=C/c1ccc(O)cc1)C=CC(C)(C)O2 [Compound 1a, (E)-1-(5-hydroxy-7-methoxy-2,2-dimethyl-2H-chromen-6-yl)-3-(4-hydroxyphenyl)prop-2-en-1-one] | significantly higher than those exerted by the reference compounds | significantly and strongly induce; also recorded: very strong and significant stimulatory effect |
| COc1cc2c(c(O)c1C(=O)/C=C/c1ccc(O)cc1)CCC(C)(C)O2 [Compound 1b, (E)-1-(5-hydroxy-7-methoxy-2,2-dimethylchroman-6-yl)-3-(4-hydroxyphenyl)prop-2-en-1-one] | significantly higher than those exerted by the reference compounds | significantly and strongly induce; also recorded: very strong and significant stimulatory effect |
